Experiments:
bovine factor Xa [1] = target: T1, bovine factor Xa (Bos taurus, UniProt P00743); conditions: reference low-molecular weight heparin used for calibration; cited from earlier work
aggrecanase = experiment: Effect on the aggrecanase in synovial fluids or on preparations of recombinant ADAMTS protein (Agg1mut substrate, BC-3 ELISA); format: biochemical; conditions: for Estimated IC50: aggrecanase, substrate conversion
Experimental: Effect of the carboxyl-reduced derivatives according to the invention on the aggrecanase in synovial fluids or on preparations of recombinant ADAMTS protein.
The analysis is carried out on 96-well plates. Before the analysis, serial dilutions of the assay compounds are prepared in an aqueous solution.
In each well, a fixed volume of synovial fluid or aggrecanase activity generating a known increase, between 1.0 and 1.4 absorbance units (405 nm), under the conditions of the analysis, is mixed with 3 μl of solution of compound from the respective dilution step. Dulbecco's modified Eagle's medium (DMEM) is added to each well to give a final volume of 300 μl. The plate is then incubated for 1 hour at 37° C. in a carbon dioxide atmosphere.
Preparation of the analytical plate:
In a first step, the microplate is coated with 100 μl per well of a commercial goat anti-mouse IgG antibody for 1 hour at ambient temperature (5 μg/ml in a phosphate buffered saline solution, pH 7.4 [PBS buffer]). After washing with the PBS buffer containing 0.1% of Tween-20 (washing buffer), the wells are blocked by means of a step consisting of a one hour incubation with 100 μl per well of 5% bovine serum albumin in a PBS buffer containing 0.05% of Tween-20.
After another rinse of the analytical plate with the washing buffer, the complete set of mixtures originating from the preceding digestion is transferred to this plate, well by well, and incubated at ambient temperature for one hour. The plate is again washed as above. Next, 100 μl of the second antibody (anti-human IgG antibody labeled with peroxidase, 1:1000 in PBS containing 0.5% of BSA and 0.05% of Tween-20) are added to each well, with subsequent incubation at ambient temperature again for one hour. […] The measurement is carried out by means of the screen mode using detection at 405 nm relative to a reference filter (620 nm) with automatic readings at 5-second intervals. The development is stopped as soon as the maximum signal (405 nm) in the absorbance range of 1.0 to 1.4 is reached.

[2] = target: T2, human neutrophil elastase (Homo sapiens, UniProt P08246); experiment: Inhibitory activity on human neutrophil elastase; format: biochemical; conditions: 15 min incubation
T2 construct: purchased Sigma E8140
T2 sequence (P08246 30-267): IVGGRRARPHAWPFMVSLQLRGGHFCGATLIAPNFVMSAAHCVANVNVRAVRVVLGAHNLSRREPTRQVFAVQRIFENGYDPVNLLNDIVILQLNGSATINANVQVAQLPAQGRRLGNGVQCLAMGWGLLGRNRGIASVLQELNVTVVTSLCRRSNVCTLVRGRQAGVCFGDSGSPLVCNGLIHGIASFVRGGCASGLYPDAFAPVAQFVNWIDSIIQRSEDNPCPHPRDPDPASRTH
Experimental: Effects of the Carboxyl-reduced Derivatives According to the Invention on Human Neutrophil Elastase
A commercially available enzyme (for example, human neutrophil elastase, Sigma No. E8140) is reconstituted in aliquots of 0.1 mg per vial with 0.276 ml of 50 mM sodium acetate buffer, pH 5.5, containing 200 mM NaCl (stock solution of the enzyme); 11 μl of this stock solution are diluted with 1.1 ml of the above HEPES buffer (enzyme assay solution).
The substrate solution is prepared by dissolving 118 mg of methoxy-succinyl-L-Ala-L-Ala-L-Pro-L-Val-p-nitro-anilide in 1 ml of DMSO (stock solution, for example Sigma No. M4765). In view of the application in the analysis, 9 μl of stock solution are then diluted in 1.19 ml of H2O.
Serial dilutions of the assay compounds are prepared in 100 mM of HEPES buffer containing 500 mM of NaCl. The analysis is carried out on colorless 96-well polystyrene microplates (for example, Corning Costar, No. 3695.
10 μl of enzyme assay solution are mixed with 10 μl of the respective solution of diluted compound and 10 μl of the substrate solution. After incubation for 15 min, the cleavage of the substrate is read as increase in absorbance at 405 nm.

bovine factor Xa [3] = target: T1, bovine factor Xa; experiment: Inhibition of factor Xa (chromogenic substrate S-2765, with human antithrombin III); format: biochemical; conditions: calibrated against Enoxaparin
Experimental: For the calibration, a standard sample of low molecular weight heparin (Enoxaparin) was used as reference.
The serial dilutions of the assay compound are prepared in a 0.046 M Tris buffer, pH 8.4, containing 0.15 M NaCl, 0.007 M EDTA, 0.1% of Tween 80 and 0.12 IU/ml of human antithrombin III. The samples of 50 μl of the respective dilutions are incubated with 50 μl of bovine factor Xa (13.6 U/ml) at 37° C. for 80 seconds. Next, 50 μl of chromogenic substrate, 1.1 mM S-2765, are added. The absorbance at 405 nm is measured in a photometer. The activity of the deblocked factor Xa is indicated by the emission of p-nitroaniline from the substrate.

[4] = conc. of glycosaminoglycan 0.0001 μg/ml
[5] = conc. of glycosaminoglycan 0.001 μg/ml
[6] = conc. of glycosaminoglycan 0.01 μg/ml
[7] = conc. of glycosaminoglycan 0.1 μg/ml

T1 sequence (P01008 33-464 partner): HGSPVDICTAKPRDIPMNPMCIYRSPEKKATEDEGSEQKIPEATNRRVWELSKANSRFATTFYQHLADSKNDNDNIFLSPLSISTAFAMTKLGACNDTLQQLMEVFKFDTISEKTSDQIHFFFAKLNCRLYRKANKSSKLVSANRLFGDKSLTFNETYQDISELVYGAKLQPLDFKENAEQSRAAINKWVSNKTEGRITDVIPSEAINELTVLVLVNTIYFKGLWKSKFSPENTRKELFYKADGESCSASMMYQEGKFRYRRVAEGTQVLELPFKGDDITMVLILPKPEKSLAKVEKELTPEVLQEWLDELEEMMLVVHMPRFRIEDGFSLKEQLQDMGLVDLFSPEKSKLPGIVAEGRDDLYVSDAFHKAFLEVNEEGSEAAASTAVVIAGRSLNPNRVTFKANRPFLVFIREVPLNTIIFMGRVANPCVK
T1 sequence (P00743 234-492 limits assumed): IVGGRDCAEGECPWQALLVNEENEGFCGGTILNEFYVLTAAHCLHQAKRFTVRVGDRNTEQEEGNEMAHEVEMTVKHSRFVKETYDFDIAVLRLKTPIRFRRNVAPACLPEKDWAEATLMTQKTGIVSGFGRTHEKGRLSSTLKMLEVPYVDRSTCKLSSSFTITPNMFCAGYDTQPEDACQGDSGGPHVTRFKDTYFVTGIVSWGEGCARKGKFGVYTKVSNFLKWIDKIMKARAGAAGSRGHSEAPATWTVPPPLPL

Substance	Anti-factor Xa activity of the reference standard (bovine factor Xa [1]) [U/mg]	Estimated IC50 (aggrecanase) [µg/mL]	% Conversion (aggrecanase; [4]) [%]	% Conversion (aggrecanase; [5]) [%]	% Conversion (aggrecanase; [6]) [%]	% Conversion (aggrecanase; [7]) [%]	IC50 [2] [µg/mL]	Anti-factor Xa activity (bovine factor Xa [3]) [U/mg]	% Conversion (aggrecanase; conc. of glycosaminoglycan 1.0 μg/ml) [%]
Enoxaparin	100	–	–	–	–	–	–	–	–
Carboxyl-reduced Dermatan Sulfate Sodium Salt [Example 1]	–	~7.9	–	–	–	–	–	–	–
Persulfated, Carboxyl-reduced Dermatan Sulfate Sodium Salt [Example 4]	–	0.007	100.0	93.4	27.4	18.0	0.11	1.1	–
6-O-sulfated, Carboxyl-reduced Dermatan Sulfate Sodium Salt [Example 5]	–	0.26	100.0	96.4	84.3	70.2	10.0	0	36.1
